Experiment [1] addresses T1, hPASK Kinase Domain (Homo sapiens, UniProt Q96RG2).
T1 construct: made in house; host or cells: insect cells
The experiment is described as follows: Biochemical Assay for hPASK Activity (Kinase-Glo Luminescent Kinase Assay), kinase domain. The following applies: Table 1, second part (Examples 33-59). How it is done: The assay for purified hPASK activity utilizes the Kinase-Glo Luminescent Kinase Assay (Promega), which quantifies the amount of ATP remaining in solution following kinase reaction. The assay is carried out in a 96-well plate format and is performed by adding a volume of Kinase-Glo Reagent (Promega, catalog #V3771) equal to the volume of solution in the well of a completed kinase reaction. Kinase-Glo reagent contains Luciferase and its substrate. After addition to a kinase reaction it allows to measure luminescence. The amount of ATP left in solution at the time of Kinase-Glo Plus addition is directly proportional to the luminescence that is measured in each well, and inversely correlated with kinase activity.
Purified hPASK from insect cells (0.02 μg) is added to a 50 μL reaction mix containing 40 mM Hepes (pH 7.0), 100 mM KCl, 5 mM MgCl2, 1 mM DTT and 1 ug of MBP protein. Inhibitory compounds are then added and the mixture is incubated for 10 min at 25° C. before adding 5 μL of ATP (at desired concentration). The reaction is allowed to proceed at 25° C. for 1 hour before adding 50 μL of Kinase-Glo reagent. The luminescence is measured as soon as 10 minutes after Kinase-Glo reagent is added.

The target in experiment [2] is T2, PASK (UniProt #Q96RG2; human recombinant N-terminal GST tagged construct, residues 879-1323) (Homo sapiens, UniProt Q96RG2).
T2 construct: N-terminal GST tagged construct, residues 879-1323; GST (N); made in house; host or cells: insect cells
Kind of experiment: 33P-ATP radiometric PASK kinase assay (P81 phosphocellulose, scintillation counting). The class given is biochemical. The following applies: Table 2, Myelin Basic Protein 20 μM, 120 min room temperature, average of all trials, read-out: IC50 Kinase Domain. How it is done: Purified PASK (UniProt #Q96RG2; human recombinant N-terminal GST tagged construct, residues 879-1323) from insect cells (final concentration 5 nM) is added to freshly prepared Base Reaction Buffer containing 20 mM Hepes (pH 7.5), 10 mM MgCl2, 1 mM EGTA, 0.02% Brij35, 0.02 mg/ml BSA, 0.1 mM Na3VO4, 2 mM DTT, 1% DMSO and Myelin Basic Protein (20 μM final). Test compounds in DMSO are then added and the mixture, followed by delivery of ^33P-ATP (specific activity 0.01 μCi/μl final) to initiate the reaction. The kinase reaction is incubated for 120 min at room temperature. The entire reaction mixture is washed through onto a P81 Phosphocellulose paper and washed three times for 10 minutes in 75 mM phosphoric acid and once in methanol prior to drying and scintillation counting. When the assay was repeated for a given compound, the activity data is based on the average of all trials.

Experiment [3] concerns the target T3, PASK (Invitrogen) Kinase Domain (Homo sapiens, UniProt Q96RG2).
T3 construct: IC50 Kinase Domain; purchased Invitrogen
Kind of experiment: PASK TR-FRET assay (Ulight-peptide, Eu chelate antibody). It counts as biochemical. The following applies: TR-FRET 665 nm/615 nm, 2 hours at 25° C. The source says:
The aim of the FRET assay is to determine the inhibition potential of test compounds on targeted kinase. This assay platform provides a homogenous screening method for measuring kinase activity by quantitating the amount of phospho-substrate in solution following a kinase reaction.
In the presence of kinase and ATP, the Ulight-peptide is phosphorylated and captured by an anti-phospho-substrate antibody, which brings the Eu chelate donor and Ulight acceptor dyes into close proximity. Upon excitation at 340 nm, the Eu chelate transfers its energy to the Ulight dye, resulting in a fluorescent light emission at 665 nm.
Titration of Kinase at 1 mM ATP was achieved via the following protocol. After making serial three-fold dilutions of PASK (Invitrogen) in reaction buffer across the plate; 5 μl of kinase dilution and 5 μl substrate/ATP mix were added to the wells of the white Optiplate-384 (PerkinElmer). The contents of the plate were and incubated at RT for 1 h. The reaction was stopped by adding 5 μl of stop solution to each test well followed by mixing and incubation at RT for 10 minutes. 5 μl of detection mix (detection antibody diluted in detection buffer) was added; the contents of the plate were mixed and then incubated in the dark for 1 hour at RT. The signal was recorded at TR-FRET mode (665 nm/615 nm). The results were graphed to calculate the EC50.
Titration of ATP at the EC50 Concentration of Kinase to determine ATP Km,app. was performed using the following method. After making serial dilutions of ATP (Invitrogen), 5 μl of ATP dilution and 5 μl substrate/kinase mix were added to the wells of the white Optiplate-384 (PerkinElmer). The contents of the plate were and incubated at RT for 1 h. The reaction was stopped by adding 5 μl of stop solution to each test well followed by mixing and incubation at RT for 10 minutes. 5 μl of detection mix (detection antibody diluted in detection buffer) was added; the contents of the plate were mixed and then incubated in the dark for 1 hour at RT. The signal was recorded at TR-FRET mode (665 nm/615 nm). The results were graphed to calculate the EC50 as the ATP Km,app.
Compound screening was done via the following method. 10 mM stock solution of test compound in DMSO was prepared by dissolving test compound in DMSO at RT for 1 hour, and then sonicating at 100% output for 8 minutes. If compound is not soluble under this condition, it was diluted to 3 mM. Kinase reaction buffer was prepared containing 10 mM MgCl2, 50 mM HEPES, 1 mM EGTA, 0.01% TWEEN-20, 2 mM DTT. […] The signal was recorded at TR-FRET mode (665 nm/615 nm).

T3 sequence (Q96RG2 999-1251 limits assumed): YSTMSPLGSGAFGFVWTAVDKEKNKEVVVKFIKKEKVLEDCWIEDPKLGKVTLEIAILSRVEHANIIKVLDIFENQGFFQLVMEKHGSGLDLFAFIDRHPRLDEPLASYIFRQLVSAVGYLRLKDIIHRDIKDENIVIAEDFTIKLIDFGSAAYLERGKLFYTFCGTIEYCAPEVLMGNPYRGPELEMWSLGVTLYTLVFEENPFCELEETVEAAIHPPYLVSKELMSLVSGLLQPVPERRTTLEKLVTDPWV
T1 sequence (Q96RG2 999-1251 limits assumed): as above
T2 sequence (Q96RG2 879-1323, stated change not applied): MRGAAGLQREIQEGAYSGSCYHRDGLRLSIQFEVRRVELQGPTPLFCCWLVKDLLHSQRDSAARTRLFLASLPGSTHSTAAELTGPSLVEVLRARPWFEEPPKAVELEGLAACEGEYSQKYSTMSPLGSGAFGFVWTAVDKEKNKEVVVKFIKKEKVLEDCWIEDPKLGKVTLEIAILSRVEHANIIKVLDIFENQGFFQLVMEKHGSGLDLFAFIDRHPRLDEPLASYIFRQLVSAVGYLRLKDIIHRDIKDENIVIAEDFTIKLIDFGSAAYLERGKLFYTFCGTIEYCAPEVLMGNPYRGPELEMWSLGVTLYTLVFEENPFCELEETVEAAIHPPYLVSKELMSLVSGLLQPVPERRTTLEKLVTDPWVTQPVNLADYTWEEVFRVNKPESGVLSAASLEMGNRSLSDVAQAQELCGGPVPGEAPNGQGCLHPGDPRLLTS

For `CC(C)(C)c1ccc(-c2nc3cc(C(=O)O)ccc3nc2-c2ccccc2)cc1` [Example 33, 3-(4-tert-Butylphenyl)-2-phenylquinoxaline-6-carboxylic acid], the 50% inhibitory concentration (IC50) in experiment [1], in experiment [2] and in experiment [3] was at most 10 µM each time.

As for `CC(C)S(=O)(=O)Nc1ccc(-c2nc3cc(C(=O)O)ccc3nc2-c2ccccc2)cc1` [Example 52, 3-(4-(Isopropylsulfonamido)phenyl)-2-phenylquinoxaline-6-carboxylic acid], the 50% inhibitory concentration (IC50) in experiment [1] and in experiment [3] was at most 10 µM each time. With `COc1ccc(-c2nc3cc(C(=O)O)ccc3cc2-c2ccccc2)cc1` [Example 60, 2-(4-Methoxyphenyl)-3-phenylquinoline-7-carboxylic acid], the IC50 in experiment [3] was at most 10 µM. `COc1ccc(-c2cc3cc(C(=O)O)ccc3nc2-c2ccc(OC)cc2)cc1` [Example 61, 2,3-Bis(4-methoxyphenyl)quinoline-6-carboxylic acid] displayed an IC50 in experiment [3] of at most 10 µM.

(Values after US9370522B2, “Heterocyclic compounds for the inhibition of PASK” (BioEnergenix, LLC, priority 2009, dated 2016).)
